A word on the pIC50: it is the IC50 on a negative log10 scale, so that one unit is a factor of ten.

In assay [1] the target is T1, Human KIF18A (amino acid sequence 1-417) (Homo sapiens, UniProt Q8NI77).
T1 construct: purchased Viva Biotech (Shanghai) Ltd
T1 sequence (Q8NI77 1-417): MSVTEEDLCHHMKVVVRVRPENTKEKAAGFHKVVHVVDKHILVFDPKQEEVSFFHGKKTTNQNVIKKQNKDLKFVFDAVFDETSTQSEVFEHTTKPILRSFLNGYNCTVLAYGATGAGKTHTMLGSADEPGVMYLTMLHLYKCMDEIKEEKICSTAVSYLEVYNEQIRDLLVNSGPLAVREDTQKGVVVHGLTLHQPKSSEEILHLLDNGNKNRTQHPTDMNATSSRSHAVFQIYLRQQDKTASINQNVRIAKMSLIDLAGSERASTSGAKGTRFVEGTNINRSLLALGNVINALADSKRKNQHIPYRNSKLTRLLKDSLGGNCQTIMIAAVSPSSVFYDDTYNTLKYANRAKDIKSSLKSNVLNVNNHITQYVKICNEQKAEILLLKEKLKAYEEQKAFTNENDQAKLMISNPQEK
Description: Enzymatic activity test (ADP-Glo, microtubule-stimulated ATPase). Format: biochemical. Conditions: 60 µg/mL microtubules, 25 µM ATP, 2.5 nM KIF18A protein, 120 min at ambient temperature, chemiluminescence; read-out: KIF18A IC50. In outline: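 Compounds (0-10 µM final, from 10 mM DMSO stock) were incubated 120 min at room temperature with 2.5 nM KIF18A 1-417, 25 µM ATP and 60 µg/mL microtubules. ATPase output was measured as ADP via ADP-Glo luminescence.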
Background: In ADP-Glo the light output rises with the ADP produced.

A further assay has as its system OVCAR3 cells. Description: Cell proliferation activity test (CyQUANT Direct). It is filed as cell-based. Conditions: 3 days, 0.2% DMSO, CyQUANT fluorescence. In outline: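 OVCAR3 cells in RPMI-1640 with 10% FBS were seeded, then treated overnight later with compound at final 0–10 µM (0.2% DMSO) for 3 days at 37°C, 5% CO2. Proliferation was read as CyQUANT Direct fluorescence after 60 min at 37°C.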

The subject of a further assay is HT29 cells. Nature of the assay: CyQuant cell proliferation activity test. Format: cell-based. Conditions: HT29 at 2000 cells per well, 3 days, 0.2% DMSO, XLFIT. The protocol: Materials and Cells: HT29 cells were purchased from Nanjing Cobioer Biosciences Co., Ltd.; RPMI-1640 medium, fetal bovine serum, Trypsin-EDTA (0.25%), 96-well plates, and CyQuant reagents were purchased from ThermoFisher (USA); DMSO was purchased from SIGMA (USA).
Cell Culture: HT29 cells were cultured with RPMI-1640 containing 10% fetal bovine serum under the condition of 37°C and 5% CO2. Only cells in the logarithmic growth phase could be used for the test.
Cell Proliferation Activity Test: CyQuant reagent was used to detect the proliferation inhibitory activity of compounds on HT29 cells. The cell density was adjusted, and 100 µL per well was inoculated into a 96-well plate (HT29 at 2000 cells per well), then incubated overnight at 37°C and 5% CO2. Add compounds of various target concentrations (initial concentration of 3000 nM, 3-fold dilution, 9 concentration gradients), and make the DMSO content 0.2%. The cell plate was incubated at 37°C in 5% CO2 for 3 days. CyQuant reagent was added and incubated for 1 h. The plates were read by Envision, and IC50 was calculated using XLFIT.

pIC50: −log10 of the molar value. Like-named read-outs stand apart in the source and are kept apart here. Bounds are passed on as bounds.

For the compound `CCS(=O)(=O)Nc1cc2c(c3c1C(=O)CC3)C(=O)Nc1cc(C)nc(n1)N1CCC(F)(F)C(C=CCC3CCN2CC3)C1` (stereo not drawn) [Example 18, N-(1^4,1^4-difluoro-2^6-methyl-5^1,4-dioxo-5^2,5^3-dihydro-5^1H-3-aza-2(2,4)-pyrimidin-1(1,3),6(1,4)-dipiperidin-5(4,5)-indenoheterocyclonon-8-en-5^7-yl)-ethanesulfonamide], the negative-log IC50 (pIC50) in assay [1] is 7.17; with OVCAR3 cells, 7.42; in the assay on HT29 cells (read-out: HT-29 IC50), 7.39.

With `Cc1cc2nc(n1)N1CCC(F)(F)C(/C=C/CC3CCN(CC3)c3cc(NS(=O)(=O)CCO)c4c(c3C(=O)N2)CCC4(F)F)C1` (stereo not drawn) [Example 15, 2-Hydroxy-N-(1^4,1^4,5^1,5^1-tetrafluoro-2^1-methyl4-dioxo-5^2,5^1-dihydro-5^1H-3-aza-2(2,4)-pyrimidin-1(1,3),6(1,4)-dipiperidin-5(4,5)-benzofurancyclononane-8-en-5^7-yl)-ethane-1-sulfonamide], the negative logarithm of the IC50 (pIC50) in assay [1] was 6.45; with OVCAR3 cells (Homo sapiens, OVCAR-3, 72 h), 7.62; with HT29 cells (Homo sapiens, HT-29, 72 h) it was 7.34.

In the case of `Cc1cc2nc(n1)N1CCC(F)(F)C(/C=C\CC3CCN(CC3)c3cc(NS(=O)(=O)C(C)CO)c4c(c3C(=O)N2)CCC4=O)C1` (stereo not drawn) [Example 11, (Z)-N-(1^4,1^4-difluoro-2^6-methyl-5^1,4-dioxo-5^2,5^3-dihydro-5^1hydro-3-aza-2(2,4)-pyrimidin-1(1,3),6(1,4)-dipiperidin-5(4, 5)-indenocyclonofin-8-en-5^7-yl)-1-hydroxypropane-2-sulfonamide], the negative logarithm of the IC50 (pIC50) in assay [1] was 7.12; in the assay with OVCAR3 cells (Homo sapiens, OVCAR-3, 72 h), 7.60; in the assay on HT29 cells (Homo sapiens, HT-29, 72 h) it was 7.48.

As to “N-((3^4Z,7E)-1^4,1^4-difluoro-2^6-methyl-3^1H-2(2,4)-pyrimidin-1(1,3),5(1,4)-dipiperidin-3(4,1)-triazole-4(1,2)-benzocyclooct-7 -en-4^4-yl)-2-hydroxyethane-1-sulfonamide [Example 81D]”, the pIC50 in assay [1] was 6.88; in the assay with OVCAR3 cells, 7.51; in the assay on HT29 cells (read-out: HT-29 IC50), 7.54.

Take `Cc1cc2nc(n1)N1CCC(F)(F)C(C=CCC3CCN(CC3)c3cc(NS(=O)(=O)CCO)c4c(c3C(=O)N2)CCC4=O)C1` (single isomer, unassigned) [Example 2B, N-(1^4,1^4-difluoro-2^6-methyl-5^1,4-dioxo-5^2,5^3-dihydro-5^1H-3-aza-2(2,4)-pyrimidin-1(1,3),6(1,4)-dipiperidin-5(4,5)-indenoheterocyclonon-8-en-5^7-yl)-2-hydroxyethane-1-sulfonamide]: the pIC50 is 5.45 in assay [1], 6.19 with OVCAR3 cells and 6.19 in the assay on HT29 cells (read-out: HT-29 IC50).

Take `COc1cc2nc(n1)N1CCC(F)(F)C(CCCc3ccc(cc3)-c3cc(NS(=O)(=O)CCO)ccc3C(=O)N2)C1` (single isomer, unassigned) [Example 51A, N-(1^4,1^4-difluoro-2^6-methoxy-4-oxo-3-aza-2(2,4)-pyrimidin-1(1,3)-piperidin-5(1,2),6(1,4)-dibenzylcyclononane-5^4-yl)-2-hydroxyethane-1-sulfonamide]: the negative-log IC50 (pIC50) is 6.97 in assay [1]; 7.35 with OVCAR3 cells (Homo sapiens, OVCAR-3, 72 h); 7.41 in the assay with HT29 cells (Homo sapiens, HT-29, 72 h).

As to `Cc1cc2nc(n1)N1CCC(F)(F)C(CCc3ccc(cc3)-c3cc(NS(=O)(=O)CCO)ccc3C(=O)N2)C1` (stereo not drawn) [Example 45, N-(2^4,2^4-difluoro-1^6-methyl-7-oxo-8-aza-1(2,4)-pyrimidin-2(1,3)-piperidin-5(1,4),6(1,2)-dibenzylcycloophene-6^5-yl)-2-hydroxyethane-1-sulfonamide], the pIC50 in assay [1] was 6.94; in the assay with OVCAR3 cells (Homo sapiens, OVCAR-3, 72 h), 7.11; in the assay on HT29 cells (Homo sapiens, HT-29, 72 h) it was 7.00.

For `Cc1cc2nc(n1)N1CCC(F)(F)C(/C=C\CC3CCN(CC3)c3cc(NS(=O)(=O)CCO)c4ccccc4c3C(=O)N2)C1` (single isomer, unassigned) [Example 1A, (cis)-N-(1^4,1^4-difluoro-2^6-methyl-4-oxo-3-aza-2(2,4)-pyrimidin-1(1,3),6(1,4)-dipiperidin-5(1,2)-naphthacyclonon-8-en-5^4-yl)-2-hydroxyethane-1-sulfonamide], the results for the pIC50 (in assay [1]; in the assay on OVCAR3 cells; with HT29 cells (read-out: HT-29 IC50)) were under 5.52, 5.55 and 5.55, respectively.

Regarding `Cc1cc2nc(n1)N1CCC(F)(F)C(CCCc3ccc(cc3)-c3cc(NS(=O)(=O)CCO)ccc3C(=O)N2)C1` (single isomer, unassigned) [Example 46A, N-(1^4,1^4-difluoro-2^6-methyl-4-oxo-3-aza-2(2,4)-pyrimidin-1(1,3)-piperidin-5(1,2),6(1,4)-diphenylheterocyclononane-5^4-yl)-2-hydroxyethane-1-sulfonamide], the negative-log IC50 (pIC50) is 6.93 in assay [1]; 7.44 in the assay with OVCAR3 cells (Homo sapiens, OVCAR-3, 72 h); 7.24 with HT29 cells (Homo sapiens, HT-29, 72 h).

Consider `Cc1cc2nc(n1)N1CCC(F)(F)C(/C=C/CC3CCN(CC3)c3cc(NS(=O)(=O)CCO)c4ccccc4c3C(=O)N2)C1` (single isomer, unassigned) [Example 1D, (trans)-N-(1^4,1^4-difluoro-2^6-methyl-4-oxo-3-aza-2(2,4)-pyrimidin-1(1,3),6(1,4)-dipiperidin-5(1,2)-naphthacyclonon-8-en-5 ^4-yl)-2-hydroxyethane-1-sulfonamide], for which the values for the pIC50 (in assay [1]; in the assay on OVCAR3 cells; with HT29 cells (read-out: HT-29 IC50)) were 6.68, 6.86 and 6.86, respectively.

For the compound `CC(=O)c1cc2c(cc1NS(=O)(=O)CCO)N1CCC(C/C=C/C3CN(CCC3(F)F)c3nc(C)cc(n3)-c3cn-2nn3)CC1` (racemic) [Example 88, N-((3^4Z,7E)-4^5-acetyl-1^4,1^4-difluoro-2^6-methyl-3^1H-2(2,4)-pyrimidin-1(1,3),5(1,4)-dipiperidin-3(4,1)-triazole-4(1,2)-benzocyclooct-7-en-4^4-yl)-2-hydroxyethane-1-sulfonamide], the pIC50 in assay [1] was under 5.52; in the assay with OVCAR3 cells (Homo sapiens, OVCAR-3, 72 h) it was under 5.52; in the assay on HT29 cells (Homo sapiens, HT-29, 72 h), under 5.52.

Regarding `Cc1cc2nc(n1)N1CCC(F)(F)C(C=CCC3CCN(CC3)c3cc(NS(C)(=O)=O)c4c(c3C(=O)N2)CCC4=O)C1` (stereo not drawn) [Example 19, N-(1^4,1^4-difluoro-2^6-methyl-5^1,4-dioxo-5^2,5^3-dihydro-5^1H-3-aza-2(2,4)-pyrimidin-1(1,3),6(1,4)-dipiperidin-5(4,5)-indenoheterocyclonon-8-en-5^7-yl)-methanesulfonamide], the pIC50 in assay [1] is 7.14; with OVCAR3 cells, 7.28; with HT29 cells (read-out: HT-29 IC50) it was 7.32.

For `Cc1cc2nc(n1)N1CCC(F)(F)C(/C=C\CC3CCN(CC3)c3cc(NS(=O)(=O)CCO)c4c(c3C(=O)N2)CCC4(C)O)C1` (stereo not drawn) [Example 13, (cis)-N-(1^4,1^4-difluoro-5^1-hydroxy-2^6,5^1-dimethyl-4-oxo-5^2,5^3-dihydro-5^1H-3-aza-2(2,4)-pyrimidin-1(1,3),6(1,4)-dipiperidin-5(4,5)-indenocyclononane-8-en-5^7-yl)-2-hydroxyethane-1-sulfonamide], the pIC50 was 6.53 in assay [1]; 6.74 in the assay with OVCAR3 cells (Homo sapiens, OVCAR-3, 72 h); 6.73 in the assay on HT29 cells (Homo sapiens, HT-29, 72 h).

Consider `COc1cc2nc(n1)N1CCC(F)(F)C(/C=C\CC3CCN(CC3)c3cc(NS(=O)(=O)CCO)c4c(c3C(=O)N2)CCC4=O)C1` (stereo not drawn) [Example 5, N-(1^4,1^4-difluoro-2^6-methoxy-5^1,4-dioxo-5^2,5^3-dihydro-5^1H-3-aza-2(2,4)-pyrimidin-1(1,3),6(1,4)-dipiperidin-5(4,5)-indenoheterocyclononane-8-en-5^7-yl)-2-hydroxyethane-1-sulfonamide], for which the negative-log IC50 (pIC50) in assay [1] was 6.79; with OVCAR3 cells (Homo sapiens, OVCAR-3, 72 h), 7.38; in the assay on HT29 cells (Homo sapiens, HT-29, 72 h), 7.38.

(Values after EP4772509A1, “KINESIN KIF18A INHIBITOR, AND APPLICATION THEREOF” (Shanghai Apeiron Therapeutics Company Limited, priority 2023, dated 2025).)
